Assay results as given in ChEMBL document CHEMBL5375942, “Discovery of a Potent Chloroacetamide GPX4 Inhibitor with Bioavailability to Enable Target Engagement in Mice, a Potential Tool Compound for Inducing Ferroptosis In Vivo” (J Med Chem, 2023).
Values belong to the molecule of their own block, whether it stands above or below them. Calls of active or inactive are those of the source. No cut-off for these calls is given here.

How the values were obtained:
NCI-H1703 [1] = assay: Induction of ferroptosis in human NCI-H1703 cells assessed as cell viability incubated for 72 hrs by CellTiter-Glo luminescent cell viability assay; type: functional, cell-based; details: NCI-H1703, 72 h
NCI-H1703 [2] = assay: Induction of ferroptosis in human NCI-H1703 cells assessed as cell viability incubated for 72 hrs in presence of ferrostatin-1 by CellTiter-Glo luminescent cell viability assay; type: functional, cell-based; details: NCI-H1703, 72 h
[3] = Metabolic stability in human liver microsomes assessed as unbound intrinsic clearance; type: ADME, Microsome
[4] = Stability in mouse plasma assessed as half life; type: ADME, cell-free
[5] = Stability in human plasma assessed as half life; type: ADME, cell-free
[6] = Metabolic stability in mouse liver microsomes assessed as unbound intrinsic clearance; type: ADME, Microsome
[7] = Unbound fraction in human plasma; type: ADME, cell-free
[8] = Unbound fraction in mouse plasma; type: ADME, cell-free
[9] = AUC in CB17 SCID-Beige mouse subcutaneously inoculated with WSUDLCL2 cells at 100 mg/kg, sc; type: ADME, organism-based; set-up: dose 100 mg/kg, route sc; details: in vivo
[10] = molecular target: Phospholipid hydroperoxide glutathione peroxidase GPX4 (Mus musculus) (UniProt O70325); assay: Target engagement at GPX4 in mouse 4T1 cells assessed as mass change between covalently bound protein and unbound protein at 0.01 to 1 ug/ml measured after 2 hrs by Western blot analysis; type: cell-based; details: dose 0.01-1 µg/ml
[11] = Aqueous solubility of the compound at pH 1; type: physicochemical
WSUDLCL2 [12] = assay: Induction of ferroptosis in human WSUDLCL2 cells assessed as cell viability incubated for 72 hrs by CellTiter-Glo luminescent cell viability assay; type: functional, cell-based
[13] = Half life in CB17 SCID-Beige mouse subcutaneously inoculated with WSUDLCL2 cells at 100 mg/kg, sc; type: ADME, organism-based; details: in vivo
HT-1080 [14] = assay: Induction of ferroptosis in GPX4-dependent human HT-1080 cells assessed as cell viability incubated for 6 hrs by time-course cell viability assay; type: functional, cell-based; details: HT-1080, 6 h
WSUDLCL2 [15] = assay: Induction of ferroptosis in human WSUDLCL2 cells assessed as cell viability incubated for 72 hrs in presence of liproxstatin-1 by CellTiter-Glo luminescent cell viability assay; type: functional, cell-based
HT-1080 [16] = assay: Induction of ferroptosis in GPX4-dependent human HT-1080 cells assessed as cell viability incubated for 24 hrs in presence of 40% human plasma by time-course cell viability assay; type: functional, cell-based; details: HT-1080, 24 h
[17] = Plasma clearance in iv dosed mouse; type: ADME, organism-based
HT-1080 [18] = assay: Induction of ferroptosis in GPX4-dependent human HT-1080 cells assessed as cell viability incubated for 3 hrs in presence of 40% human plasma by time-course cell viability assay; type: functional, cell-based; details: HT-1080, 3 h
WSUDLCL2 [19] = assay: Induction of ferroptosis in human WSUDLCL2 cells assessed as cell viability incubated for 72 hrs in presence of ferrostatin-1 by CellTiter-Glo luminescent cell viability assay; type: functional, cell-based
[20] = AUC in CB17 SCID-Beige mouse subcutaneously inoculated with WSUDLCL2 cells at 100 mg/kg, ip; type: ADME, organism-based; set-up: dose 100 mg/kg, route ip; details: in vivo
HT-1080 [21] = assay: Induction of ferroptosis in GPX4-dependent human HT-1080 cells assessed as cell viability incubated for 3 hrs by time-course cell viability assay; type: functional, cell-based; details: HT-1080, 3 h
[22] = Cmax in CB17 SCID-Beige mouse subcutaneously inoculated with WSUDLCL2 cells at 100 mg/kg, ip; type: ADME, organism-based; set-up: dose 100 mg/kg, route ip; details: in vivo
[23] = Half life in CB17 SCID-Beige mouse subcutaneously inoculated with WSUDLCL2 cells at 100 mg/kg, ip; type: ADME, organism-based; details: in vivo
HT-1080 [24] = assay: Induction of ferroptosis in GPX4-dependent human HT-1080 cells assessed as cell viability measured immediately after addition of compound by time-course cell viability assay; type: functional, cell-based
HT-1080 [25] = assay: Induction of ferroptosis in GPX4-dependent human HT-1080 cells assessed as cell viability incubated for […] by time-course cell viability assay; type: functional, cell-based
HT-1080 [26] = assay: Induction of ferroptosis in GPX4-dependent human HT-1080 cells assessed as cell viability incubated for […] in presence of 40% human plasma by time-course cell viability assay; type: functional, cell-based
HT-1080 [27] = assay: Induction of ferroptosis in GPX4-dependent human HT-1080 cells assessed as cell viability incubated for 6 hrs in presence of 40% human plasma by time-course cell viability assay; type: functional, cell-based; details: HT-1080, 6 h
[28] = Aqueous solubility of the compound at pH 7; type: physicochemical
[29] = Cmax in CB17 SCID-Beige mouse subcutaneously inoculated with WSUDLCL2 cells at 100 mg/kg, sc; type: ADME, organism-based; set-up: dose 100 mg/kg, route sc; details: in vivo

Sequence of Phospholipid hydroperoxide glutathione peroxidase GPX4 (Mus musculus) (O70325 whole entry): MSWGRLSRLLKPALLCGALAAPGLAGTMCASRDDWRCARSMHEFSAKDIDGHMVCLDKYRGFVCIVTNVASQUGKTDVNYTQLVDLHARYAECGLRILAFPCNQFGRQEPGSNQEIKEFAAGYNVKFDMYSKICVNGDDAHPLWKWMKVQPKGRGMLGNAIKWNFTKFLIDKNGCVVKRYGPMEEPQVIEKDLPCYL

SMILES: COC(=O)[C@H]1Cc2c([nH]c3ccccc23)C(c2ccc(F)cc2C(F)(F)F)N1C(=O)CCl (single isomer, unassigned)
- EC50 (NCI-H1703 [1]): 64 nM
- EC50 (NCI-H1703 [2]): > 10000 nM

SMILES: COC(=O)[C@H]1Cc2c([nH]c3ccccc23)[C@H](c2ccc(F)cc2F)N1C(=O)CCl
- EC50 (NCI-H1703 [1]): 107 nM
- EC50 (NCI-H1703 [2]): 3950 nM

SMILES: COC(=O)[C@H]1Cc2c([nH]c3ccccc23)[C@H](C2CCOCC2)N1C(=O)CCl
- CL free [3]: 33 mL/min/kg
- fraction unbound [7]: 0.31
- EC50 (NCI-H1703 [1]): 3130 nM
- fraction unbound [8]: 0.24
- EC50 (NCI-H1703 [2]): > 10000 nM
- CL free [6]: 353 mL/min/kg

SMILES: COC(=O)c1ccc([C@H]2c3[nH]c4ccccc4c3C[C@H](C(=O)OC)N2C(=O)CCl)cc1
- AUC [9]: 2.67 µg/h/mL
- Activity [10]: Active
- CL free [3]: 195 mL/min/kg
- solubility [11]: < 0.8 µM
- half-life [4]: 0.167 h
- Activity (WSUDLCL2 [12]): Active
- half-life [13]: 4.1 h
- EC50 (HT-1080 [14]): 60 nM
- EC50 (NCI-H1703 [1]): 80 nM
- Activity (WSUDLCL2 [15]): inactive
- EC50 (HT-1080 [16]): 880 nM
- clearance [17]: 478 mL/min/kg
- EC50 (HT-1080 [18]): 1010 nM
- half-life [5]: 14.6 h
- Activity (WSUDLCL2 [19]): inactive
- AUC [20]: 2.79 µg/h/mL
- CL free [6]: 8720 mL/min/kg
- EC50 (HT-1080 [21]): 80 nM
- Cmax [22]: 650 ng/mL
- half-life [23]: 1.8 h
- EC50 (HT-1080 [24]): 590 nM
- EC50 (HT-1080 [25]): 160 nM
- EC50 (HT-1080 [26]): 1420 nM
- EC50 (HT-1080 [27]): 750 nM
- solubility [28]: < 0.8 µM
- Cmax [29]: 480 ng/mL

SMILES: COC(=O)[C@H]1Cc2c([nH]c3ccccc23)[C@H](c2ccc(C(F)(F)F)nc2)N1C(=O)CCl
- CL free [3]: 147 mL/min/kg
- half-life [4]: 2.12 h
- EC50 (NCI-H1703 [1]): 42 nM
- half-life [5]: 2.63 h
- EC50 (NCI-H1703 [2]): > 10000 nM
- CL free [6]: 1060 mL/min/kg

Other lines, results leading:

- EC50 (NCI-H1703 [1]): 116 nM
- EC50 (NCI-H1703 [2]): > 10000 nM
SMILES: COC(=O)[C@H]1Cc2c([nH]c3ccccc23)[C@H](c2ccccc2)N1C(=O)CCl

- CL free [3]: 45 mL/min/kg
- half-life [4]: 0.167 h
- EC50 (NCI-H1703 [1]): 570 nM
- half-life [5]: 4.23 h
- EC50 (NCI-H1703 [2]): 5660 nM
- CL free [6]: 563 mL/min/kg
SMILES: COC(=O)[C@H]1Cc2c([nH]c3ccccc23)[C@H](c2cccc(S(C)(=O)=O)c2)N1C(=O)CCl

- CL free [3]: 375 mL/min/kg
- fraction unbound [7]: 0.068
- half-life [4]: 4.02 h
- EC50 (NCI-H1703 [1]): 127 nM
- half-life [5]: 13 h
- EC50 (NCI-H1703 [2]): > 10000 nM
- CL free [6]: 2050 mL/min/kg
SMILES: COC(=O)[C@H]1Cc2c([nH]c3ccccc23)[C@H](c2ccc(OC)cc2)N1C(=O)CCl

- CL free [3]: 76.7 mL/min/kg
- half-life [4]: 1.05 h
- EC50 (NCI-H1703 [1]): > 10000 nM
- half-life [5]: 0.933 h
- CL free [6]: 905 mL/min/kg
SMILES: C=CC(=O)N1[C@@H](c2ccccc2)c2[nH]c3ccccc3c2C[C@@H]1C(=O)OC

- CL free [3]: 477 mL/min/kg
- fraction unbound [7]: 0.026
- half-life [4]: 2.7 h
- EC50 (NCI-H1703 [1]): 984 nM
- half-life [5]: 6.1 h
- EC50 (NCI-H1703 [2]): > 10000 nM
- CL free [6]: 4725 mL/min/kg
SMILES: COC(=O)[C@H]1Cc2c([nH]c3ccccc23)[C@H](Cc2ccccc2)N1C(=O)CCl

- CL free [3]: 505 mL/min/kg
- fraction unbound [7]: 0.011
- half-life [4]: 2.77 h
- EC50 (NCI-H1703 [1]): 265 nM
- half-life [5]: 6.18 h
- EC50 (NCI-H1703 [2]): > 10000 nM
- CL free [6]: 5810 mL/min/kg
SMILES: CC(C)OC(=O)[C@H]1Cc2c([nH]c3ccccc23)[C@H](c2ccccc2)N1C(=O)CCl

- CL free [3]: 292 mL/min/kg
- fraction unbound [7]: 0.061
- half-life [4]: 3.6 h
- EC50 (NCI-H1703 [1]): 1760 nM
- half-life [5]: 7.43 h
- EC50 (NCI-H1703 [2]): > 10000 nM
- CL free [6]: 1640 mL/min/kg
SMILES: O=C([C@H]1Cc2c([nH]c3ccccc23)[C@H](c2ccccc2)N1C(=O)CCl)N1CCCC1
